# US20180030500A1, “ENRICHMENT AND SELECTIVE CULTURE OF MYCOBACTERIA” (priority 2015, published 2018)
# Read-outs that look alike come from different tables or passages of the source.
# Tests used:
# [1] = system: Enterobacteria; conditions: 7 strains, 7 days
# [2] = system: Mycobacteria; conditions: 20 strains, 7 days
# [3] = system: Gram-positive bacteria; conditions: 10 strains, 7 days
# [4] = system: Pseudomonas aeruginosa; conditions: 50 strains, 7 days
# [5] = system: Burkholderia vietnamiensis (744978N); test: Sensitivity to C-390 in medium W; type: cell-based; parameters: key: NG: no growth; Tr: traces
# Protocol: (§1) An evaluation of the sensitivity to C-390 of various microorganisms capable of infecting the airways was carried out. This evaluation was carried out using medium W of example 4, containing a variable concentration of C-390. Table 10 below collates the observations collected with regard to the intensity of growth of the strains tested as a function of the C-390 concentration of the medium. The abbreviations NG (“no growth”) and Tr (“traces”) signify that no growth was observed or only a few not very significant traces.
# [6] = system: Burkholderia anthina (20983); test: Sensitivity to C-390 in medium W; type: cell-based; parameters: key: NG: no growth; Tr: traces
# Protocol: as §1
# [7] = system: Burkholderia multivorans (672832Y); test: Sensitivity to C-390 in medium W; type: cell-based; parameters: key: NG: no growth; Tr: traces
# Protocol: as §1
# [8] = system: Burkholderia vietnamiensis (LMG 18835); test: Sensitivity to C-390 in medium W; type: cell-based; parameters: key: NG: no growth; Tr: traces
# Protocol: as §1
# [9] = system: Aspergillus terreus (Anon); test: Sensitivity to C-390 in medium W; type: cell-based; parameters: key: NG: no growth; Tr: traces
# Protocol: as §1
# [10] = system: Burkholderia dolosa (LMG21820); test: Sensitivity to C-390 in medium W; type: cell-based; parameters: key: NG: no growth; Tr: traces
# Protocol: as §1
# [11] = system: Burkholderia cenocepacia (672834P); test: Sensitivity to C-390 in medium W; type: cell-based; parameters: key: NG: no growth; Tr: traces
# Protocol: as §1
# [12] = selective agent 32 mg/l in medium L
# [13] = selective agent 64 mg/l in medium L
# [14] = selective agent 128 mg/l in medium L
compound,measurement,setting,value
"CCN(CC)c1ccc(C2(Cl)c3ccccc3N(c3ccccc3)c3ccccc32)cc1 [Medium C-390, 9-chloro-9-(4′-diethylamino)phenyl-9,10-dihydro-10-phenylacridine]",Number of strains having shown growth,[1]; [12],0
same,Number of strains having shown growth,[1]; [13],0
same,Number of strains having shown growth,[1]; [14],0
same,Number of strains having shown growth,[2]; [12],19
same,Percentage of strains having shown growth,[2]; [12],(95%)
same,Number of strains having shown growth,[2]; [13],19
same,Percentage of strains having shown growth,[2]; [13],(95%)
same,Number of strains having shown growth,[2]; [14],19
same,Percentage of strains having shown growth,[2]; [14],(95%)
same,Number of strains having shown growth,[3]; [12],0
same,Number of strains having shown growth,[3]; [13],0
same,Number of strains having shown growth,[3]; [14],0
same,Number of strains having shown growth,[4]; [12],46
same,Percentage of strains having shown growth,[4]; [12],(92%)
same,Number of strains having shown growth,[4]; [13],45
same,Percentage of strains having shown growth,[4]; [13],(90%)
same,Number of strains having shown growth,[4]; [14],35
same,Percentage of strains having shown growth,[4]; [14],(70%)
same,intensity of growth,[5]; C-390 1 mg/l in medium W,Tr
same,intensity of growth,[5]; C-390 2 mg/l in medium W,NG
same,intensity of growth,[5]; C-390 4 mg/l in medium W,NG
same,intensity of growth,[5]; C-390 8 mg/l in medium W,NG
same,intensity of growth,[5]; C-390 16 mg/l in medium W,NG
same,intensity of growth,[5]; C-390 32 mg/l in medium W,NG
same,intensity of growth,[6]; C-390 1 mg/l in medium W,Tr
same,intensity of growth,[6]; C-390 2 mg/l in medium W,NG
same,intensity of growth,[6]; C-390 4 mg/l in medium W,NG
same,intensity of growth,[6]; C-390 8 mg/l in medium W,NG
same,intensity of growth,[6]; C-390 16 mg/l in medium W,NG
same,intensity of growth,[6]; C-390 32 mg/l in medium W,NG
same,intensity of growth,[7]; C-390 4 mg/l in medium W,Tr
same,intensity of growth,[7]; C-390 8 mg/l in medium W,NG
same,intensity of growth,[7]; C-390 16 mg/l in medium W,NG
same,intensity of growth,[7]; C-390 32 mg/l in medium W,NG
same,intensity of growth,[8]; C-390 1 mg/l in medium W,NG
same,intensity of growth,[8]; C-390 2 mg/l in medium W,NG
same,intensity of growth,[8]; C-390 4 mg/l in medium W,NG
same,intensity of growth,[8]; C-390 8 mg/l in medium W,NG
same,intensity of growth,[8]; C-390 16 mg/l in medium W,NG
same,intensity of growth,[8]; C-390 32 mg/l in medium W,NG
same,intensity of growth,[9]; C-390 1 mg/l in medium W,NG
same,intensity of growth,[9]; C-390 2 mg/l in medium W,NG
same,intensity of growth,[9]; C-390 4 mg/l in medium W,NG
same,intensity of growth,[9]; C-390 8 mg/l in medium W,NG
same,intensity of growth,[9]; C-390 16 mg/l in medium W,NG
same,intensity of growth,[9]; C-390 32 mg/l in medium W,NG
same,intensity of growth,[10]; C-390 1 mg/l in medium W,Tr
same,intensity of growth,[10]; C-390 2 mg/l in medium W,NG
same,intensity of growth,[10]; C-390 4 mg/l in medium W,NG
same,intensity of growth,[10]; C-390 8 mg/l in medium W,NG
same,intensity of growth,[10]; C-390 16 mg/l in medium W,NG
same,intensity of growth,[10]; C-390 32 mg/l in medium W,NG
same,intensity of growth,[11]; C-390 8 mg/l in medium W,NG
same,intensity of growth,[11]; C-390 16 mg/l in medium W,NG
same,intensity of growth,[11]; C-390 32 mg/l in medium W,NG
